From patent publication US8129410B2, “Benzisoxazole piperidine compounds and methods of use thereof” (Hypnion, Inc., priority 2005, dated 2012)

Tested on: adult, male Wistar rats
Assay: Sleep-wakefulness monitoring (SCORE-2004, EEG/EMG) in rats after oral dosing at CT-18
Type: in vivo, rat
Conditions: for LONGEST UNINTERRUPTED SLEEP BOUT: bout length defined in minutes; for MAXIMUM NREM SLEEP CUMULATION: cumulative nonREM defined in minutes, in min
Method: Sleep-wakefulness, locomotor activity and body temperature are monitored in male Wistar rats treated with a test compound (i.e., benzisoxazole analog) initially at a concentration of 10 mg/kg. Higher and lower doses are assayed for select compounds (e.g., as high as 45 mg/kg, and as low as necessary to establish a no-effect dose). Treatments are administered at CT-18, the peak of the activity dominated period (6 hours after lights-off), and produced soporific (sleep-inducing) effects characterized by increased non-REM sleep time, increased sleep continuity, but without evidence of REM sleep inhibition or rebound insomnia.
Sleep-wakefulness, locomotor activity and body temperature were monitored in vivo with various compounds of the invention. Adult, male Wistar rats (250 g at time of surgery, Charles River Laboratories, Wilmington Mass.) were anesthetized (2% isoflourane in medical grade oxygen) and surgically prepared with a cranial implant to permit chronic electro-encephalogram (EEG) and electromyogram (EMG) recording. Body temperature and locomotor activity were monitored via a miniature transmitter (Mini-Mitter, Bend, Oreg.) surgically placed in the abdomen. The cranial implant consisted of stainless steel screws (two frontal [+3.2 AP from bregma, ±2.0 ML] and two occipital [−6.9 AP, ±5.5 ML]) for EEG recording. Two Teflon®-coated stainless steel wires were positioned under the nuchal trapezoid muscles for EMG recording. All leads were soldered to a miniature connector prior to surgery, and gas sterilized in ethylene oxide. The implant assembly was affixed to the skull with dental acrylic. A minimum of three weeks was allowed for surgical recovery.
Each rat was permanently housed in its own individual recording cage located within separate, ventilated compartments of custom-designed stainless steel cabinets. Each cage was enhanced with a filter-top riser and low-torque swivel-commutator. Food and water were available ad libitum. A 24-hr light-dark cycle (12 hours light, 12 hours dark) was maintained throughout the study. Animals were undisturbed for at least 48 hours before and after treatments.
Sleep and wakefulness were determined using “SCORE-2004™” (Hypnion, Worcester, Mass.)—an internet-based sleep-wake and physiological monitoring system. The system monitored amplified EEG (bandpass 1-30 Hz), integrated EMG (bandpass 10-100 Hz), body temperature and non-specific locomotor activity (LMA) via telemetry, and drinking activity, continuously and simultaneously. Arousal states were classified on-line as non-REM (NREM) sleep, REM sleep, wake, or theta-dominated wake every 10 seconds. Total drinking and locomotor activity counts, and body temperature were quantitiated and recorded each minute, using EEG feature extraction and pattern-matching algorithms. […] The classification algorithm used individually-taught EEG-arousal-state templates, plus EMG criteria to differentiate REM sleep from theta-dominated wakefulness, plus behavior-dependent contextual rules (e.g., if the animal was drinking, it is awake). Drinking and locomotor activity intensity (LMA) were recorded every 10 seconds, while body temperature was recorded each minute. Locomotor activity was detected by a telemetry receiver (Mini-Mitter) beneath the cage. Telemetry measures (LMA and body temperature) were not part of the scoring algorithm; thus, sleep-scoring and telemetry data were independent measures.
Compounds were administered at CT-18, the peak of the activity-dominated period, sufficient time was allowed to view the time course of the treatment effect before lights-on (6 hours post-treatment). Compounds were suspended in sterile 0.25% or 0.5% methylcellulose (1-2 ml/kg). Treatments were administered orally as a bolus.
A parallel group study design was employed. […]

## CC(C)(CN1CCC(c2noc3ccccc23)CC1)C(=O)O [Compound 1]
0.3 mg/kg oral
  LONGEST UNINTERRUPTED SLEEP BOUT: 3.3 ± 1.8
  MAXIMUM NREM SLEEP CUMULATION: 13 ± 4
1 mg/kg oral
  LONGEST UNINTERRUPTED SLEEP BOUT: 17.2 ± 4.8
  MAXIMUM NREM SLEEP CUMULATION: 23 ± 6
3 mg/kg oral
  LONGEST UNINTERRUPTED SLEEP BOUT: 16.1 ± 2.3
  MAXIMUM NREM SLEEP CUMULATION: 21 ± 6
10 mg/kg oral
  LONGEST UNINTERRUPTED SLEEP BOUT: 15.2 ± 3.3
  MAXIMUM NREM SLEEP CUMULATION: 28 ± 5
